The values that follow come from patent publication US6565872B2, “Polymeric system for drug delivery and solute separation” (priority 1999, dated 2003).

This data set is described as follows: Permeation of solutes through the composite membrane, side-by-side diffusion cell. The class given is physicochemical. Conditions: for P(45° C.)/P(20° C.) in 0.0001M KCl: permeability ratio across composite membrane, 45° C. vs 20° C. Here is the method: Permeation of solutes of various molecular sizes through the membrane was determined using a side-by-side diffusion cell. The solution in the receptor cell was pumped to a UV cell with a peristaltic pump. The amount of solute permeated was assayed by a diode array spectrophotometer (HP 8452A). The pH of the medium was adjusted either by addition of sodium hydroxide and hydrochloric acid.

In the case of `CC(=O)Nc1ccc(O)cc1` [Acetaminophen], the “P(45° C.)/P(20° C.) in 0.0001M KCl” value is given as 2.20. Also, the “ratio of the permeability at 40° C. to that at 25° C.” value (composite membrane, DDI water (FIG. 5)) is recorded as “about 2.6 times”.
Take Chymotrypsin: the “P(45° C.)/P(20° C.) in 0.0001M KCl” value is reported as “No permeation at both”. Besides, the “penetration through the membrane” value (at the studied temperatures) is “could not penetrate through the membrane”.
For the molecule Vitamin B12, the “P(45° C.)/P(20° C.) in 0.0001M KCl” value is given as 11.0. Also, the “permeability at 45° C. relative to that at 20° C.” value (composite membrane, in the presence of CaCl2 (3.33×10^−2 mM, FIG. 7), calculated from slopes) is “about 11 fold”. The “permeation across the membrane into water at 25° C.” value (water, 25° C. compared with 40° C. (FIG. 6)) was “almost negligible permeation”.
